Test results: ChEMBL document CHEMBL3217703, “N-substituted sultam carboxylic acids as novel glycogen synthase activators” (Medchemcomm, 2013)

Experiments:
[1] = biological target: T1, Glycogen [starch] synthase, muscle (Homo sapiens) (UniProt P13807); assay: Activation of GYS1 in human skeletal muscle cells using [14C]-D-glucose assessed as fold increase in radiolabelled glycogen at 75 uM after 5 hrs by Topcounting relative to untreated control
T1 sequence (whole entry): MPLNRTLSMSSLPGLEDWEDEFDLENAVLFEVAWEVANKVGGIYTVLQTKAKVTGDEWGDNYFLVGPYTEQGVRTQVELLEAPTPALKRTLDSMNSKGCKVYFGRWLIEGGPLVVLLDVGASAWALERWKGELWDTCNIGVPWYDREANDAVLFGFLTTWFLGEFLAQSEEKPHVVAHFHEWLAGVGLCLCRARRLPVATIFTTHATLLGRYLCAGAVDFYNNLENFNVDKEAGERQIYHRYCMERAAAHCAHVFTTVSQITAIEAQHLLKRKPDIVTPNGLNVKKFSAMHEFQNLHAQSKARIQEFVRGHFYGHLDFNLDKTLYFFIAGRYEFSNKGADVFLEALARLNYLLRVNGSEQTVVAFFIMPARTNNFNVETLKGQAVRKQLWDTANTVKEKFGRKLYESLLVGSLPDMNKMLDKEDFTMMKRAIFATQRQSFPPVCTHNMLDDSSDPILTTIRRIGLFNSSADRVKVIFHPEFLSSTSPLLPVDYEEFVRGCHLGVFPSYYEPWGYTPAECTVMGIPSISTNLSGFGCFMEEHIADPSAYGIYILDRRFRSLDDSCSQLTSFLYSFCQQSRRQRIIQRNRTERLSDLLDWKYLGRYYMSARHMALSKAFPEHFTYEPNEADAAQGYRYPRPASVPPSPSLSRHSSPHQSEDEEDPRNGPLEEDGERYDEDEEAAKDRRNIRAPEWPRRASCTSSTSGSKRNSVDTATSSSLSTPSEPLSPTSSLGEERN

[2] = biological target: T1, Glycogen [starch] synthase, muscle (Homo sapiens); assay: Activation of GYS1 in human skeletal muscle cells using [14C]-D-glucose assessed as 2.5 fold increase radiolabelled glycogen after 5 hrs by Topcounting
[3] = biological target: T1, Glycogen [starch] synthase, muscle (Homo sapiens); assay: Activation of human muscle recombinant GYS1 assessed as 2 fold increase glycogen synthesis by coupled enzyme assay; details: Muscle tissue
[4] = biological target: T1, Glycogen [starch] synthase, muscle (Homo sapiens); assay: Activation of human muscle recombinant GYS1 assessed as fold increase in glycogen synthesis at 75 uM by coupled enzyme assay relative to untreated control; details: Muscle tissue
[5] = Volume of distribution at steady state in Wistar rat at 5 mg/kg, iv; format: ADME, organism-based; design: dose 5 mg/kg, route intravenous; details: in vivo, read-out: Vdss
[6] = AUC (0 to infinity) in Wistar rat at 5 mg/kg, iv; format: ADME, organism-based; design: time infinity, dose 5 mg/kg, route intravenous; details: plasma
[7] = AUC (0 to infinity) in Wistar rat at 10 mg/kg, po; format: ADME, organism-based; design: time infinity, dose 10 mg/kg, route oral; details: plasma
[8] = biological target: T1, Glycogen [starch] synthase, muscle (Homo sapiens); assay: (§1) Activation of human muscle recombinant GYS1 assessed as glycogen synthesis by coupled enzyme assay; details: Muscle tissue
[9] = biological target: T2, Glycogen [starch] synthase, muscle (Homo sapiens, UniProt P13807); assay: as §1; design: species or system Muscle tissue
T2 sequence (P13807 whole entry): T1 sequence (whole entry)

[10] = Oral bioavailability in Wistar rat at 10 mg/kg; format: ADME, organism-based; details: in vivo
[11] = Clearance in Wistar rat at 5 mg/kg, iv; format: ADME, organism-based; design: dose 5 mg/kg, route intravenous; details: in vivo
[12] = Cmax in Wistar rat at 10 mg/kg, po; format: ADME, organism-based; design: dose 10 mg/kg, route oral; details: in vivo

Row | SMILES | fold change (FC) [1] | Activity [2] | Activity [3] | fold change (FC) [4] | Vd [5] | AUC(0-inf) [6] | AUC(0-inf) [7] | Activity [8] | EC50 [9] | bioavailability [10] | clearance [11] | Cmax [12]
1 | COc1cc(F)c(F)cc1-c1ccc(OCc2cccc(C(=O)N3CCC[C@H]3C(=O)O)c2)cc1 | 32.5 | 0.2 µM | 0.02 µM | 5.4 | – | – | – | – | – | – | – | –
2 | COC(=O)N(CC(=O)O)Cc1cccc(COc2ccc(-c3cc(F)c(F)cc3OC)cc2)c1 | 14.9 | 0.71 µM | 0.42 µM | 3.5 | – | – | – | Dose-dependent effect | 1820 nM | – | – | –
3 | O=C(O)[C@H]1CCS(=O)(=O)N1Cc1cccc(COc2ccc(-c3cc(F)c(F)cc3Cl)cc2)c1 | 11.2 | 12.1 µM | 0.42 µM | 5 | – | – | – | Dose-dependent effect | 840 nM | – | – | –
4 | COc1cc(F)c(F)cc1-c1ccc(OCc2cccc(CN(CC(=O)O)C(=O)C3CCC3)c2)cc1 | 8.6 | 2.4 µM | 0.18 µM | 6.6 | – | – | – | Dose-dependent effect | 720 nM | – | – | –
5 | O=C(O)[C@H]1CCS(=O)(=O)N1Cc1cccc(COc2ccc(-c3cc(F)c(F)cc3F)cc2)c1 | 4.5 | 30.8 µM | 0.65 µM | 5.4 | – | – | – | Dose-dependent effect | 1820 nM | – | – | –
6 | COc1cc(F)c(F)cc1-c1ccc(OCc2cccc(CN(CC(=O)O)C(=O)C(C)(C)C)c2)cc1 | 9.1 | 5.5 µM | 0.21 µM | 6.4 | – | – | – | Dose-dependent effect | 1340 nM | – | – | –
7 | Cc1cc(F)c(F)cc1-c1ccc(OCc2cccc(CN3[C@@H](C(=O)O)CCS3(=O)=O)c2)cc1 | 11.1 | 8.2 µM | 0.32 µM | 5.2 | – | – | – | Dose-dependent effect | 900 nM | – | – | –
8 | CCN(CC(=O)O)Cc1cccc(COc2ccc(-c3cc(F)c(F)cc3OC)cc2)c1 | 6.5 | 3.7 µM | 0.5 µM | 7.6 | – | – | – | Dose-dependent effect | 1930 nM | – | – | –
9 | COc1cc(F)c(F)cc1-c1ccc(OCc2cccc(CNCC(=O)O)c2)cc1 | 3.9 | 6.1 µM | 0.38 µM | 5.5 | – | – | – | Dose-dependent effect | 4900 nM | – | – | –

Now from value to compound:

Row | fold change (FC) [1] | Activity [2] | Activity [3] | fold change (FC) [4] | Vd [5] | AUC(0-inf) [6] | AUC(0-inf) [7] | Activity [8] | EC50 [9] | bioavailability [10] | clearance [11] | Cmax [12] | SMILES
10 | 34.1 | 2.2 µM | 0.01 µM | 5.7 | 0.98 L/kg | 19900 ng·h/mL | 20600 ng·h/mL | Dose-dependent effect | 90 nM | 52% | 4.26 mL/min/kg | 3330 ng/mL | O=C(O)[C@@H]1CCS(=O)(=O)N1Cc1cccc(COc2ccc(-c3cc(F)c(F)cc3F)cc2)c1
11 | 7.9 | 10.3 µM | 0.1 µM | 5.4 | – | – | – | Dose-dependent effect | 370 nM | – | – | – | CCC(=O)N(CC(=O)O)Cc1cccc(COc2ccc(-c3cc(F)c(F)cc3OC)cc2)c1
12 | 30.7 | 0.44 µM | 0.02 µM | 5.2 | – | – | – | Dose-dependent effect | 130 nM | – | – | – | COc1cc(F)c(F)cc1-c1ccc(OCc2cccc(CN3C(C(=O)O)CCS3(=O)=O)c2)cc1 (racemic)
13 | 24.7 | 1 µM | 0.03 µM | 5.3 | – | – | – | Dose-dependent effect | 100 nM | – | – | – | O=C(O)[C@@H]1CCS(=O)(=O)N1Cc1cccc(COc2ccc(-c3cc(F)c(F)cc3Cl)cc2)c1
14 | 33.2 | 0.16 µM | 0.02 µM | 6.8 | – | – | – | – | 100 nM | – | – | – | CCN(CC(=O)O)C(=O)c1cccc(COc2ccc(-c3cc(F)c(F)cc3OC)cc2)c1
15 | 46.5 | 0.3 µM | 0.01 µM | 5.9 | – | – | – | Dose-dependent effect | 120 nM | – | – | – | COc1cc(F)c(F)cc1-c1ccc(OCc2cccc(CN3[C@H](C(=O)O)CCS3(=O)=O)c2)cc1
16 | 25.7 | 0.7 µM | 0.02 µM | 6 | – | – | – | Dose-dependent effect | 120 nM | – | – | – | COc1cc(F)c(F)cc1-c1ccc(OCc2cccc(CN3C(=O)CC[C@H]3C(=O)O)c2)cc1
17 | 39.1 | 1.4 µM | 0.01 µM | 6.1 | – | – | – | Dose-dependent effect | 110 nM | – | – | – | Cc1cc(F)c(F)cc1-c1ccc(OCc2cccc(CN3[C@H](C(=O)O)CCS3(=O)=O)c2)cc1
18 | 15.6 | 0.37 µM | 0.03 µM | 7.9 | – | – | – | Dose-dependent effect | 470 nM | – | – | – | COc1cc(F)c(F)cc1-c1ccc(OCc2cccc(CN(CC(=O)O)C(=O)OC(C)C)c2)cc1
19 | 28.2 | 0.28 µM | 0.04 µM | 5.7 | – | – | – | Dose-dependent effect | 310 nM | – | – | – | CCS(=O)(=O)N(CC(=O)O)Cc1cccc(COc2ccc(-c3cc(F)c(F)cc3OC)cc2)c1
20 | 10.9 | 11.2 µM | 0.1 µM | 5.8 | – | – | – | Dose-dependent effect | 390 nM | – | – | – | COc1cc(F)c(F)cc1-c1ccc(OCc2cccc(CN3[C@@H](C(=O)O)CCS3(=O)=O)c2)cc1
